Activity calls are given as the source filed them.
Legend:
Caspase-7 = Caspase-7 (Homo sapiens, UniProt P55210); assay: procaspase-7 activators, dose response, counter-screen for procaspase-3 activator project, biochemical, absorbance (AID 489013)
Caspase-3 = target: T1, Caspase-3 (Homo sapiens, UniProt P42574); assay: procaspase-3 activators, dose response, biochemical, absorbance (AID 489014)
T1 sequence (P42574 whole entry): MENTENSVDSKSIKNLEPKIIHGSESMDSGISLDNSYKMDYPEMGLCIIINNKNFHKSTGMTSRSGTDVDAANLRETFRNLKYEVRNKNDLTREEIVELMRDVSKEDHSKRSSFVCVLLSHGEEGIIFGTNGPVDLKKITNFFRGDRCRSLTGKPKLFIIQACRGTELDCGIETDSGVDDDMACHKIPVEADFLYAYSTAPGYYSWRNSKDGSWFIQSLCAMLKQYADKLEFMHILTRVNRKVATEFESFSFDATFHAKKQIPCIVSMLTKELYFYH

[1] = target: DNA dC->dU-editing enzyme APOBEC-3G (Homo sapiens, UniProt Q9HC16); assay: Dose Response confirmation of small molecule APOBEC3G DNA Deaminase Inhibitors via a fluorescence-based single-stranded DNA deaminase assay. [Related pubchem assays (depositor defined):AID493012, AID493028]; type: functional
Sequence of DNA dC->dU-editing enzyme APOBEC-3G (Q9HC16 whole entry): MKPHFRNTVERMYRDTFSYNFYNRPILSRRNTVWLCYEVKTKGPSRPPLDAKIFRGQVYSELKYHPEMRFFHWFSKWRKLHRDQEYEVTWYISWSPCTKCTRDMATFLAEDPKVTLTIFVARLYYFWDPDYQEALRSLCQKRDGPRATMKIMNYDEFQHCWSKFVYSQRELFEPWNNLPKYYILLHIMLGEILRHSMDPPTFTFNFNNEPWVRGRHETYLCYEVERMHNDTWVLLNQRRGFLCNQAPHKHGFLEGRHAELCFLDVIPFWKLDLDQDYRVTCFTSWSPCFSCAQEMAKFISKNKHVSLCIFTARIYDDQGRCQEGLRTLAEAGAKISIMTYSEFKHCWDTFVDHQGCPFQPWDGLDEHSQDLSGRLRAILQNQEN

[2] = target: DNA dC->dU-editing enzyme APOBEC-3A (Homo sapiens, UniProt P31941); assay: APOBEC3A DNA deaminase inhibitors, dose response, biochemical (AID 504722); type: functional
Sequence of DNA dC->dU-editing enzyme APOBEC-3A (P31941 whole entry): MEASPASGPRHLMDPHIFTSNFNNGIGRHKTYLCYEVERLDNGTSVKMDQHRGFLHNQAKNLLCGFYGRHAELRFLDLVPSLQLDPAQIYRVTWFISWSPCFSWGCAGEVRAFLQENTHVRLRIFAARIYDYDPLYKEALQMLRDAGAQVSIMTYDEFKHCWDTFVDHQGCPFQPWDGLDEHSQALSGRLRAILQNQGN

[3] = target: T2, Rac GTPase-activating protein 1 (Homo sapiens, UniProt Q9H0H5); assay: MgcRacGAP GTPase-activating activity inhibitors, confirmation, biochemical, ADP Hunter fluorescence, primary and confirmatory (AID 624330); type: functional
T2 sequence (Q9H0H5 whole entry): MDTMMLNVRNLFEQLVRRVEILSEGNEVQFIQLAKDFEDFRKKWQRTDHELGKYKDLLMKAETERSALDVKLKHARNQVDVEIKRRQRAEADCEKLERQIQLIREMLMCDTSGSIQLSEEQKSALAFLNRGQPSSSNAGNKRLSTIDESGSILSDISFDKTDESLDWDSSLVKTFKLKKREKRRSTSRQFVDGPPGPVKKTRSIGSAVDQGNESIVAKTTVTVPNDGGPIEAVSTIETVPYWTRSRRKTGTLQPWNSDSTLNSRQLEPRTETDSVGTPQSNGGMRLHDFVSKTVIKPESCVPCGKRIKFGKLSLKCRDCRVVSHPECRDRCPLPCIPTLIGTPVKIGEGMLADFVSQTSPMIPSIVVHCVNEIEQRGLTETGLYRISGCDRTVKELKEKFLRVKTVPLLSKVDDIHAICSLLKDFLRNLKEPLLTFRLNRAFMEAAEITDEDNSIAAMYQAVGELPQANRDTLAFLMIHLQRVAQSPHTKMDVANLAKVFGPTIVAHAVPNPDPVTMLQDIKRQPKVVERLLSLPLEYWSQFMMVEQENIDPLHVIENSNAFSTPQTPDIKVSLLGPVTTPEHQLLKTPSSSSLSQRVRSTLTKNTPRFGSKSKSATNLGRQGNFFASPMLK

[4] = target: Voltage-dependent T-type calcium channel subunit alpha-1H (Homo sapiens, UniProt O95180); assay: Cav3.2 T-type channel inhibitors, cell-based, synthetic library set 1, calcium flux (AID 493022); type: functional
Sequence of Voltage-dependent T-type calcium channel subunit alpha-1H (O95180 whole entry): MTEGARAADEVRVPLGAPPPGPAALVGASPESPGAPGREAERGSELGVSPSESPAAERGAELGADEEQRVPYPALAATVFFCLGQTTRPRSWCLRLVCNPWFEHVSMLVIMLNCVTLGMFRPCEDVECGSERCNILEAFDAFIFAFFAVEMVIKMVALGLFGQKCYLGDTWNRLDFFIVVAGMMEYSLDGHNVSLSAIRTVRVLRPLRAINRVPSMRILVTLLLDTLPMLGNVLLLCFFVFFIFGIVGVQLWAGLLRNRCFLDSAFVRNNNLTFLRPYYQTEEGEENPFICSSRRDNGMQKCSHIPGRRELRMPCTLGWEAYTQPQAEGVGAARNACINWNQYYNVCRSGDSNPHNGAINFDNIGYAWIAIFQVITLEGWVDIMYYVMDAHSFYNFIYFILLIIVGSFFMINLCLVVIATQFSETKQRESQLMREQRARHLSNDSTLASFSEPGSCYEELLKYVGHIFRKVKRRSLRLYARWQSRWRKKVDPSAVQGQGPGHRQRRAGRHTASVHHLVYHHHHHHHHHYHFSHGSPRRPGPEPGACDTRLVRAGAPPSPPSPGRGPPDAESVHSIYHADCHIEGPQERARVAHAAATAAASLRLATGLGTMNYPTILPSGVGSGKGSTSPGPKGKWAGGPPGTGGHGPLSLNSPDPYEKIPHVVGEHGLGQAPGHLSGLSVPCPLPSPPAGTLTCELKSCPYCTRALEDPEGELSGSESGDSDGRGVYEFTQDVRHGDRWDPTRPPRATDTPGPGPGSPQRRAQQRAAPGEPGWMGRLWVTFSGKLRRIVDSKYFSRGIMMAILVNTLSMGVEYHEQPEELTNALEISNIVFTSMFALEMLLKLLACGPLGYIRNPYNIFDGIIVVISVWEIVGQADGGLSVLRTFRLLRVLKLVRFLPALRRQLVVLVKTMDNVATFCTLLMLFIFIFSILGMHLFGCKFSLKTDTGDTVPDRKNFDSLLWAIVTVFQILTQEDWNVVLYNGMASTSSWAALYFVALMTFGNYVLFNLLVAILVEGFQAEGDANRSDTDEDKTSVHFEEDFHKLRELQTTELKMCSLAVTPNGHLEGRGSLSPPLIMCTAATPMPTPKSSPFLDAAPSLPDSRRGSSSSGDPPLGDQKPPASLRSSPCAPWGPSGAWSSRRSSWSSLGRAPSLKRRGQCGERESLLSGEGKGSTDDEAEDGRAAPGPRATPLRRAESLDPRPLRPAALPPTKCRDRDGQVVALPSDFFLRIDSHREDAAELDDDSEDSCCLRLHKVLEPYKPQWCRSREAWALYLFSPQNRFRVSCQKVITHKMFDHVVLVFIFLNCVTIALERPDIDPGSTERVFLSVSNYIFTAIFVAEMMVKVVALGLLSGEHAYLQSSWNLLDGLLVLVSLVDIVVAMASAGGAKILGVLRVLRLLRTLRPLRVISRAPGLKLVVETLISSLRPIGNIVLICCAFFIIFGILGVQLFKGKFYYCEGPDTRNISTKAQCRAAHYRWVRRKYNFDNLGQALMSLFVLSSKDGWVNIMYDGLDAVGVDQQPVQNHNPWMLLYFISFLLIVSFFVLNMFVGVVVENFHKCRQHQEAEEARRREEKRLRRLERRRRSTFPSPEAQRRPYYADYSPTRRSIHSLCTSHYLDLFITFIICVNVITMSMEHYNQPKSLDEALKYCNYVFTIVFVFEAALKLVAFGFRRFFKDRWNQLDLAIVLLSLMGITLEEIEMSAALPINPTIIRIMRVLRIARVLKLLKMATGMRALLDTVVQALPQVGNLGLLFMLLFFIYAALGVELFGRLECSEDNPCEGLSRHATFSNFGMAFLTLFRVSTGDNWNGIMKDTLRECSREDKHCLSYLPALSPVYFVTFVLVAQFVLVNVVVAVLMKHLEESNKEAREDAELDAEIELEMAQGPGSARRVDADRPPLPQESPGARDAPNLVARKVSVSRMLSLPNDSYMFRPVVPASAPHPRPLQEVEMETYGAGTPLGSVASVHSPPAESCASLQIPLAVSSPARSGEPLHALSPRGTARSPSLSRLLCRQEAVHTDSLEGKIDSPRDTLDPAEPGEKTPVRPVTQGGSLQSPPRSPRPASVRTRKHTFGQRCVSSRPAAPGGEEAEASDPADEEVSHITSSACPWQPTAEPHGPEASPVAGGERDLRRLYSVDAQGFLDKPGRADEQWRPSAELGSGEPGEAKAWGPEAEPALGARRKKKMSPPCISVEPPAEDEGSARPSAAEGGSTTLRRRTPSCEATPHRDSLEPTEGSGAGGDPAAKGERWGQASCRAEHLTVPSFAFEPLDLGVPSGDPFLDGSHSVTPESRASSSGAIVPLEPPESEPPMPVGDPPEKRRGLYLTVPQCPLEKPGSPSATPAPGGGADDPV

HT-1080 = assay: cytotoxicity in HT1080 fibrosarcoma cells, cell-based, fluorescence readout (AID 620); type: functional; settings: Homo sapiens
[5] = target: T3, RNA-binding protein pos-1 (Caenorhabditis elegans, UniProt G5EF15); assay: inhibitors of POS-1/mex-3 RNA binding, dose response, biochemical, fluorescence polarization (AID 1964);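 further: purified POS-1 fused to maltose binding protein made in E. coli; potency of compounds blocking POS-1 binding to fluorescent RNA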
T3 sequence (G5EF15 whole entry): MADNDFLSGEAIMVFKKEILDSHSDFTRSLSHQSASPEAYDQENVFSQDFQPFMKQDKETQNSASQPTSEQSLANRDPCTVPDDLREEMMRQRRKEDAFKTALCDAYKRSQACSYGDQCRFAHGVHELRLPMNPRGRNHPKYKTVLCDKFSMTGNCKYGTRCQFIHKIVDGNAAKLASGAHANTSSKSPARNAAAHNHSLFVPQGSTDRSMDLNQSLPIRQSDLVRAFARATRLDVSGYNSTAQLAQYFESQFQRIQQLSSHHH

cells [6] = settings: A549
[7] = HepG2 cell cytotoxicity, dose response, cytotoxicity control, ATP luminescence, cherry-pick, set 6 (AID 1053125); type: functional, cell-based
[8] = Artemis endonuclease inhibitor potency, dose response, biochemical, fluorescence intensity (AID 720701); type: functional;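 further: Artemis endonuclease enzyme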
ORF 73 = ORF 73 (Human herpesvirus 8, UniProt O40947); assay: inhibitors of C-LANA binding to LBS DNA, dose response, biochemical, fluorescence polarization, cherry-picked samples (AID 504725); design: species or system Human gammaherpesvirus 8;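 further: fluorescence polarization of a labeled DNA duplex reporting LANA DNA binding; potency is for inhibitors that block LANA binding to the DNA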
Sequence of ORF 73 (O40947 whole entry): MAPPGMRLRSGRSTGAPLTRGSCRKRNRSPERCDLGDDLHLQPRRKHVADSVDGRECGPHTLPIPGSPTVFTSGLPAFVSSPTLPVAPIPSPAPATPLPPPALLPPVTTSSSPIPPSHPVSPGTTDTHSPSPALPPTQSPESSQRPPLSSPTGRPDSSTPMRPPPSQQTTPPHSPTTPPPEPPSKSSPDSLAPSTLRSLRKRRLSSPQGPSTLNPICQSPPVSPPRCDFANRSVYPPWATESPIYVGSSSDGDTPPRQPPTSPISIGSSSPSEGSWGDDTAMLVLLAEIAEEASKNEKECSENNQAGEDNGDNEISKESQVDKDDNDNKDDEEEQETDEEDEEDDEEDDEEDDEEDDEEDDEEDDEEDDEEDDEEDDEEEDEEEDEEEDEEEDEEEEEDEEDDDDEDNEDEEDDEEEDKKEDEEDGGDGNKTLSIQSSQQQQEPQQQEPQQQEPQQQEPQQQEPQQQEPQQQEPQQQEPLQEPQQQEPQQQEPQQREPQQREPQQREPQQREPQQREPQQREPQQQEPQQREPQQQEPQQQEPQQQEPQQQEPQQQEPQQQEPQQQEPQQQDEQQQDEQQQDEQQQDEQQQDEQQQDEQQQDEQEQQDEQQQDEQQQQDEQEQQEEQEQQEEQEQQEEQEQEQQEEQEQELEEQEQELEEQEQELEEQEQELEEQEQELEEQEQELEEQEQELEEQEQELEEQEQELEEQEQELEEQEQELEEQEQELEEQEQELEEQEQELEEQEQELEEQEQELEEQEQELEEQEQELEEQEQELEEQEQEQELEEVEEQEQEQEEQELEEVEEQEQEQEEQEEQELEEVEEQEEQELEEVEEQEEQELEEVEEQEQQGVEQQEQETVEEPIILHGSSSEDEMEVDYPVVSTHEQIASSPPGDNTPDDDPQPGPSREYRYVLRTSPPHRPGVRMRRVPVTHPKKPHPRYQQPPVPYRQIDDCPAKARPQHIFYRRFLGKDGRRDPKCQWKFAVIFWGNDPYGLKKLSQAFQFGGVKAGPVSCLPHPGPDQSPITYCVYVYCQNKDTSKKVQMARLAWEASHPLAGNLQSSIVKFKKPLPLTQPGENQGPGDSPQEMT

Salmon testes DNA = assay: DNA intercalators displacing acridine orange, dose response, artefact control for KSHV LANA DNA-binding inhibitor project, biochemical, fluorescence polarization, cherry-picked samples, set 2 (AID 504727); design: species or system Salmonidae
HeLa = assay: HeLa cell cytotoxicity, dose response, cytotoxicity control, 24 h, cherry-picked samples (AID 504726); type: functional, cell-based; settings: Homo sapiens;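 further: potency for cytotoxicity as loss of luminescence signal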
cells [9] = settings: HEK293
[10] = target: T4, Zinc finger protein mex-5 (Caenorhabditis elegans, UniProt Q9XUB2); assay: MEX-5/TCR-2 RNA interaction inhibitors, dose response, biochemical, C. elegans, fluorescence polarization (AID 1960)
T4 sequence (Q9XUB2 whole entry): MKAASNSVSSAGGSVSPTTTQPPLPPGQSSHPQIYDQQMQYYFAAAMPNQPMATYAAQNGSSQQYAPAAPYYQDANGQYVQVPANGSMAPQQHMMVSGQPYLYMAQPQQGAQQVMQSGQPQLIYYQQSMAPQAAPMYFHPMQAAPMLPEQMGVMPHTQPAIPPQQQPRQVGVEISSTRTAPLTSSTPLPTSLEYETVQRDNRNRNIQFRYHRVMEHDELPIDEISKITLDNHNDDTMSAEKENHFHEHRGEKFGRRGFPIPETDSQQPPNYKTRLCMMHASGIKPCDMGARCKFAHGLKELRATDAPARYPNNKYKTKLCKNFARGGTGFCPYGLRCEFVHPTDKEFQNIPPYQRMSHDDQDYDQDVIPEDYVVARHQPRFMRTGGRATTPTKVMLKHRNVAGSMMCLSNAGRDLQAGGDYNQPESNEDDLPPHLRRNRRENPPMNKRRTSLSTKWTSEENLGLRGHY

[11] = target: Luciferin 4-monooxygenase (Photinus pyralis, UniProt P08659); assay: Counter Screen for Luciferase-based Assay Positives. [Related pubchem assays: 620, 618, 411 ]
[12] = target: T5, Microphthalmia-associated transcription factor (Homo sapiens, UniProt O75030); assay: TRPM1 promoter luciferase signal decrease, dose response, MITF inhibitor project, cell-based, SK-MEL-5, cherry-picked, set 3 (AID 493073); type: functional
T5 sequence (O75030 whole entry): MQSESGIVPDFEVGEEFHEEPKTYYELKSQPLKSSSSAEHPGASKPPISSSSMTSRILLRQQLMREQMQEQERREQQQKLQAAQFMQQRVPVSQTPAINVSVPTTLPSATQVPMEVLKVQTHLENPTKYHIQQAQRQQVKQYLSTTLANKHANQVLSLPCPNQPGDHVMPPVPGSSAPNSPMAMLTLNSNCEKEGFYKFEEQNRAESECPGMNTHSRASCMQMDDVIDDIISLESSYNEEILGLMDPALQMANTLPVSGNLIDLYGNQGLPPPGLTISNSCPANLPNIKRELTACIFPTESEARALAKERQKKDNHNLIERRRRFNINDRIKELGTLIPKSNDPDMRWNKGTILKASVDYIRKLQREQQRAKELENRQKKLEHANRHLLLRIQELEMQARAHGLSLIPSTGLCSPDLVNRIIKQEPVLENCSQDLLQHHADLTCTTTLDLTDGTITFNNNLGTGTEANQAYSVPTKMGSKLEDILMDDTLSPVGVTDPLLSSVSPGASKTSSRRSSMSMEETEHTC

[13] = target: G-protein coupled receptor 35 (Homo sapiens, UniProt Q9HC97); assay: SAR analysis of Antagonists of the GPR35 Receptor using an Image-Based Assay - Set 5. [Related pubchem assays (depositor defined):AID2058, AID2079]; type: functional
Sequence of G-protein coupled receptor 35 (Q9HC97 whole entry): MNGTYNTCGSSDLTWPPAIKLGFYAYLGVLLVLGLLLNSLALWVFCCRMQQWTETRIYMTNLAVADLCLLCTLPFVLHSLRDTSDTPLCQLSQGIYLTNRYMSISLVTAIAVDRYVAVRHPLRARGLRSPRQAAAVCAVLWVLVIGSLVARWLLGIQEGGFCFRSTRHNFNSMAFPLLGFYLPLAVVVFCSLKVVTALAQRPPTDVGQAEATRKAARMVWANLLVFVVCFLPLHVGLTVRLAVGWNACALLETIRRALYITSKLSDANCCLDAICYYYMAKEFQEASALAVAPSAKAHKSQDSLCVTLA

[14] = target: G-protein coupled receptor 55 (Homo sapiens, UniProt Q9Y2T6); assay: SAR Analysis of Selective Antagonists of GPR55 using an Image-Based Assay - Set 3. [Related pubchem assays (depositor defined):AID2058, AID2079]; type: functional
Sequence of G-protein coupled receptor 55 (Q9Y2T6 whole entry): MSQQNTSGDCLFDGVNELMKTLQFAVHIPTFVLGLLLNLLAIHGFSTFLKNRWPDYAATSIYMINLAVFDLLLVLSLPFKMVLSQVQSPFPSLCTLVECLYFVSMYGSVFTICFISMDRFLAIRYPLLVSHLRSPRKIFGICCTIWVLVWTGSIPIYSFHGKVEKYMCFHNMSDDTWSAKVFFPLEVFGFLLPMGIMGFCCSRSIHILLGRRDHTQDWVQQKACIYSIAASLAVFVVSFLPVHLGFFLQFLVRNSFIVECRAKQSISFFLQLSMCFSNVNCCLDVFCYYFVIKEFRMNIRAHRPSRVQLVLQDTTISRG

[15] = target: T6, Heat shock factor protein 1 (Mus musculus, UniProt P38532); assay: inhibition of MG132-induced HSE-luciferase signal, confirmation, cell-based, NIH3T3, luminescence, dose retest (AID 2382); type: functional;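 further: NIH3T3 fibroblasts with HSF1-driven luciferase reporter stressed by proteasome inhibitor MG132; luminescence from HSF1-driven luciferase expression after 8 hours of MG132 stress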
T6 sequence (P38532 whole entry): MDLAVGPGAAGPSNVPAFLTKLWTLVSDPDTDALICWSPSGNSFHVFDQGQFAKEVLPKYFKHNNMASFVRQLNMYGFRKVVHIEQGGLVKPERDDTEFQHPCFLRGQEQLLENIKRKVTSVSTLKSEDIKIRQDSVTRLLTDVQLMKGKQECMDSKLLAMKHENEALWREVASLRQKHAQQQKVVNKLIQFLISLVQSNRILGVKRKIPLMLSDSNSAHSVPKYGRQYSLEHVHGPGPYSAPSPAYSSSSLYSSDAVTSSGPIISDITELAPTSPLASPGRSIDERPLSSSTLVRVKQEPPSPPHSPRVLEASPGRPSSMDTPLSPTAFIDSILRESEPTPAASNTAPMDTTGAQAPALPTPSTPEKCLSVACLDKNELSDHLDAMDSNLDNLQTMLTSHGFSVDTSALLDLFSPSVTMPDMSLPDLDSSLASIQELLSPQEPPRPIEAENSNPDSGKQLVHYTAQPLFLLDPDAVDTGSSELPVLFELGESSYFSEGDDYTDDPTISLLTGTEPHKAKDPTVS

HEK293 = assay: inhibitors of LMP1-driven NF-kB reporter, dose response, cell-based, HEK293, luciferase, cherry-pick (AID 588343); type: functional; settings: Homo sapiens
[16] = target: T7, Short transient receptor potential channel 4 (Mus musculus, UniProt Q9QUQ5); assay: TRPC4 positive allosteric modulators, dose response, cell-based, HEK293 TRPC4/mu-opioid, Fluo-4 calcium, EC20 DAMGO (AID 434941); type: functional
T7 sequence (Q9QUQ5 whole entry): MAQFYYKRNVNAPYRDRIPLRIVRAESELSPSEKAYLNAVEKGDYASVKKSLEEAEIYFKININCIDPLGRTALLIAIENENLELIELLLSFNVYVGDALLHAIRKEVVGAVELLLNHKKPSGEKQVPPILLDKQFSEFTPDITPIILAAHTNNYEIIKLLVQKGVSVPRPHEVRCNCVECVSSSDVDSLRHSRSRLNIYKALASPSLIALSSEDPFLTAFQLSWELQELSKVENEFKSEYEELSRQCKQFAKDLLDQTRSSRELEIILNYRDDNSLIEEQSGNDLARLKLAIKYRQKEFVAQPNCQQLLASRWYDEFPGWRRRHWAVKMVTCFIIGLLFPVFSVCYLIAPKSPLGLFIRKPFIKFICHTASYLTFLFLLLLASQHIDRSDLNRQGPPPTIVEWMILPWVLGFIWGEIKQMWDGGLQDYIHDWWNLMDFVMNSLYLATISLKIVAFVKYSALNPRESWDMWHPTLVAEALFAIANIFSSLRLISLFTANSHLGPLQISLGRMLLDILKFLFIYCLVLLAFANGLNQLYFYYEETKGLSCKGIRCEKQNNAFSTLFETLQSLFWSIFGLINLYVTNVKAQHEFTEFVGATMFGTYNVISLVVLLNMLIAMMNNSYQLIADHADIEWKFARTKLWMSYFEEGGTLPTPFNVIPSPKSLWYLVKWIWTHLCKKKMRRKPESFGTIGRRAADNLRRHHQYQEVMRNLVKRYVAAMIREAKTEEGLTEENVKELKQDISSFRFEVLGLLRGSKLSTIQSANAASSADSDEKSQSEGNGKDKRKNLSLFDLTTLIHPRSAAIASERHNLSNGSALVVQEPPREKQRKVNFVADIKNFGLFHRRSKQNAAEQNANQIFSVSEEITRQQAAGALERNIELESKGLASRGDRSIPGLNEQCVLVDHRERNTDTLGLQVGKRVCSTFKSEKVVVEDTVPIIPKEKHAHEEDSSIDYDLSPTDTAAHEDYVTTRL

Sequence of Caspase-7 (P55210 24-198 limits assumed): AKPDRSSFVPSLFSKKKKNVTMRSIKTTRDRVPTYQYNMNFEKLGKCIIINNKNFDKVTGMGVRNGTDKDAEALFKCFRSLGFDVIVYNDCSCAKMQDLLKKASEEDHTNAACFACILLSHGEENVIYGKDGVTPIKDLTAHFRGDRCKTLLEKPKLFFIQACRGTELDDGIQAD
Sequence of Caspase-7 (P55210 207-303 limits assumed): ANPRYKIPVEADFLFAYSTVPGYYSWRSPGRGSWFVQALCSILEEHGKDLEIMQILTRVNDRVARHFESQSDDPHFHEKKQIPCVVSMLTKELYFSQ

CC(=O)NCCc1nc2ccccc2n1Cc1ccc(C)cc1
EC50 (Caspase-7): > 85.2 µM (inactive)
EC50 (Caspase-3): > 85.2 µM (inactive)

O=[N+]([O-])c1cccc(/C=N/n2c(S)nnc2-c2cccnc2)c1
IC50 [1]: 2.33 µM (active)
IC50 [2]: > 100 µM (inactive)
IC50 [3]: 31.9 µM (active)

O=C(COc1ccc(Cl)cc1)Nc1nnc(-c2ccc3ccccc3c2)o1
EC50 [4]: 10 µM (active)

c1ccc(-c2cn3nc4c(nc3n2)CCCC4)cc1
EC50 (HT-1080): > 50 µM (not active)
EC50 [5]: 14.3 µM (active)
AC50 (cells [6]): 15.8 µM (active)
AC50 [7]: > 52 µM (inactive)
IC50 [8]: > 20 µM (inactive)
AC50 (ORF 73): 94.3 µM (active)
AC50 (Salmon testes DNA): 169 µM (active)
AC50 (HeLa): 31.1 µM (active)
AC50 (cells [9]): 12.7 µM (active)
EC50 [10]: 10.6 µM (active)
EC50 [11]: 0.29 µM (active)
AC50 [12]: 5.89 µM (active)

COC(=O)c1cnn(-c2ccccc2)c1/C=N/NC(=S)NC(C)(C)C
IC50 [13]: 0.307 µM (active)
IC50 [14]: 6.58 µM (active)

N#CC1=C(N)C(C#N)(C#N)C(c2cccnc2)C2CC(c3ccccc3)CC=C12 (stereo not drawn)
EC50 [15]: > 195 µM (not active)
AC50 (HEK293): 10.5 µM (active)
EC50 [16]: 4.73 µM (active)

— ChEMBL document CHEMBL1201862, “PubChem BioAssay data set” (2004)
